For data set [1] the following is noted: cited from earlier work; for bioavailability of the drug: tromethamine or sodium salts, British Pat. No. 2,059,768, German Pat. No. 134,672.
For data set [2] the following is noted: in vivo.

Take `CC1=C(CC(=O)O)c2cc(F)ccc2C1=Cc1ccc([S+](C)[O-])cc1` (centres unmarked) [sulindac]: in data set [1] (NSAID, reduction-oxidation prodrug), the duration of action result is reported as “long duration of action”. In data set [1] (sulindac, commercialized as CLINORIL), the onset of activity entry was “slow onset of activity”.
For the molecule `CC(=O)Oc1ccccc1C(=O)O` [aspirin], in data set [1], the “bioavailability of the drug” value was “enhanced bioavailability”.
With `COc1ccc2c(c1)c(CC(=O)O)c(C)n2C(=O)c1ccc(Cl)cc1` [indomethacin], the “bioavailability of the drug” value in data set [1] is listed as “enhanced bioavailability”.
Regarding `CC1=C(CC(=O)O)c2cc(F)ccc2/C1=C\c1ccc([S+](C)[O-])cc1` (centres unmarked) [sodium sulindac], the absorption of sulindac entry in data set [2] is “Extremely rapid absorption”.

(Values after patent US4704405A (priority 1986, dated 1987).)
